Experimental data as given in US20230372498A1, “PLK1 SELECTIVE DEGRADATION INDUCING COMPOUND” (UPPTHERA, priority 2020, published 2023).

biological target: T1, PLK1 (Homo sapiens, UniProt P53350); assay: PLK1 protein degradation in HeLa cells, Western blotting (PLK1/GAPDH ratio); type: cell-based; conditions: thymidine block and release, 6 hours compound incubation, 10 points three-fold from 3 μM, PLK1 to GAPDH ratio, read-out: Dmax
T1 construct: endogenous in cells; host or cells: HeLa
How it was run: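 PLK1 level measured by Western blot as PLK1/GAPDH in HeLa lysates (15 μg protein per lane). Cells were blocked with 2 mM thymidine 24 h, released 4 h, and exposed 6 h to compound, 10 concentrations, 3-fold steps, top 3 μM.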

T1 sequence (P53350 whole entry): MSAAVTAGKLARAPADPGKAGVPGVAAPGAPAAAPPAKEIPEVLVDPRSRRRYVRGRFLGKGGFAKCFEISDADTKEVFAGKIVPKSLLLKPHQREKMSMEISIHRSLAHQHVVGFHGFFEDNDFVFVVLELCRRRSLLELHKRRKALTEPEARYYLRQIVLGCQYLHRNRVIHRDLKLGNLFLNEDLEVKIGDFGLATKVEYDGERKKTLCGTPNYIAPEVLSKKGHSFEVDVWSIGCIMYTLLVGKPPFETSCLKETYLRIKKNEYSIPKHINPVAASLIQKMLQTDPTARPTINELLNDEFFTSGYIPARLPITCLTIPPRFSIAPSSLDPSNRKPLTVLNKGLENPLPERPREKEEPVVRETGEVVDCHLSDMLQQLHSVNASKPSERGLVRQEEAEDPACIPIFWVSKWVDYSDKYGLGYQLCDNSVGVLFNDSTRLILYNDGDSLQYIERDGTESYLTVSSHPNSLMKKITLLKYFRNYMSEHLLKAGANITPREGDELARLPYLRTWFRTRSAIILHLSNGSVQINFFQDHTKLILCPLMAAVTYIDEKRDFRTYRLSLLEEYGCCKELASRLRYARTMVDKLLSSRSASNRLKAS

Dmax, ≥ 80%:
COc1cc(C(=O)NCCOCCOCCNc2cccc3c2C(=O)N(C2CCC(=O)NC2=O)C3=O)ccc1Nc1ncc2c(n1)N(C1CCCC1)CC(F)(F)C(=O)N2C (centres unmarked) [Example 168, 4-((9-cyclopentyl-7,7-difluoro-5-methyl-6-oxo-6,7,8,9-tetrahydro-5H-pyrimido[4,5-b][1,4]diazepin-2-yl)amino)-N-(2-(2-(2-((2-(2,6-dioxopiperidin-3-yl)-1,3-dioxoisoindolin-4-yl)amino)ethoxy)ethoxy)ethyl)-3-methoxybenzamide]
COc1cc(C(=O)NCCCOCCCOCCNc2cccc3c2C(=O)N(C2CCC(=O)NC2=O)C3=O)ccc1Nc1ncc2c(n1)N(C1CCCC1)CC(F)(F)C(=O)N2C (centres unmarked) [Example 169, 4-((9-cyclopentyl-7,7-difluoro-5-methyl-6-oxo-6,7,8,9-tetrahydro-5H-pyrimido[4,5-b][1,4]diazepin-2-yl)amino)-N-(3-(3-(2-((2-(2,6-dioxopiperidin-3-yl)-1,3-dioxoisoindolin-4-yl)amino)ethoxy)propoxy)propyl)-3-methoxybenzamide]
CN1C(=O)C(F)(F)CN(C2CCCC2)c2nc(Nc3ccc(C(=O)NCCCOCCCOCCNc4cccc5c4C(=O)N(C4CCC(=O)NC4=O)C5=O)cc3)ncc21 (centres unmarked) [Example 170, 4-((9-cyclopentyl-7,7-difluoro-5-methyl-6-oxo-6,7,8,9-tetrahydro-5H-pyrimido[4,5-b][1,4]diazepin-2-yl)amino)-N-(3-(3-(2-((2-(2,6-dioxopiperidin-3-yl)-1,3-dioxoisoindolin-4-yl)amino)ethoxy)propoxy)propyl)benzamide]
COc1cc(C(=O)NCCCOCCCOCCNc2cccc3c2CN(C2CCC(=O)NC2=O)C3=O)ccc1Nc1ncc2c(n1)N(C1CCCC1)CC(F)(F)C(=O)N2C (centres unmarked) [Example 171, 4-((9-cyclopentyl-7,7-difluoro-5-methyl-6-oxo-6,7,8,9-tetrahydro-5H-pyrimido[4,5-b][1,4]diazepin-2-yl)amino)-N-(3-(3-(2-((2-(2,6-dioxopiperidin-3-yl)-1-oxoisoindolin-4-yl)amino)ethoxy)propoxy)propyl)-3-methoxybenzamide]
COc1cc(C(=O)NC2CCN(CCOCCOCCOCCOCCOCCOCCOCCNc3cccc4c3C(=O)N(C3CCC(=O)NC3=O)C4=O)CC2)c(F)cc1Nc1ncc2c(n1)N(C1CCCC1)CC(F)(F)C(=O)N2C (centres unmarked) [Example 172, 4-((9-cyclopentyl-7,7-difluoro-5-methyl-6-oxo-6,7,8,9-tetrahydro-5H-pyrimido[4,5-b][1,4]diazepin-2-yl)amino)-N-(1-(23-((2-(2,6-dioxopiperidin-3-yl)-1,3-dioxoisoindolin-4-yl)amino)-3,6,9,12,15,18,21-heptaoxatricosyl)piperidin-4-yl)-2-fluoro-5-methoxybenzamide]
COc1cc(C(=O)N[C@H]2CCN(C(=O)CCCCN3CCN(c4cccc5c4C(=O)N(C4CCC(=O)NC4=O)C5=O)CC3)C2)c(F)cc1Nc1ncc2c(n1)N(C1CCCC1)CC(F)(F)C(=O)N2C (stereo partly drawn) [Example 173, 4-((9-cyclopentyl-7,7-difluoro-5-methyl-6-oxo-6,7,8,9-tetrahydro-5H-pyrimido[4,5-b][1,4]diazepin-2-yl)amino)-N-((3S)-1-(5-(4-(2-(2,6-dioxopiperidin-3-yl)-1,3-dioxoisoindolin-4-yl)piperazin-1-yl)pentanoyl)pyrrolidin-3-yl)-2-fluoro-5-methoxybenzamide]
COc1cc(C(=O)N[C@H]2CCN(C(=O)CCN3CCN(c4ccc5c(c4)C(=O)N(C4CCC(=O)NC4=O)C5=O)CC3)C2)ccc1Nc1ncc2c(n1)N(C1CCCC1)CC(F)(F)C(=O)N2C (stereo partly drawn) [Example 174, 4-((9-cyclopentyl-7,7-difluoro-5-methyl-6-oxo-6,7,8,9-tetrahydro-5H-pyrimido [4,5-b][1,4]diazepin-2-yl)amino)-N-((3S)-1-(3-(4-(2-(2,6-dioxopiperidin-3-yl)-1,3-dioxoisoindolin-5-yl)piperazin-1-yl)propanoyl)pyrrolidin-3-yl)-3-methoxybenzamide]
COc1cc(C(=O)N[C@H]2CCN(C(=O)CCCN3CC4(C3)CN(c3cccc5c3C(=O)N(C3CCC(=O)NC3=O)C5=O)C4)C2)c(F)cc1Nc1ncc2c(n1)N(C1CCCC1)CC(F)(F)C(=O)N2C (stereo partly drawn) [Example 175, 4-((9-cyclopentyl-7,7-difluoro-5-methyl-6-oxo-6,7,8,9-tetrahydro-5H-pyrimido[4,5-b][1,4]diazepin-2-yl)amino)-N-((3S)-1-(4-(6-(2-(2,6-dioxopiperidin-3-yl)-1,3-dioxoisoindolin-4-yl)-2,6-diazaspiro[3.3]heptan-2-yl)butanoyl)pyrrolidin-3-yl)-2-fluoro-5-methoxybenzamide]
